The values that follow come from patent US4547354A (priority 1983, dated 1985).

The conditions of the data set: 95° C., 4 hours.

Read-outs that look alike come from different tables or passages of the source.

With `OO` [H2 O2, hydrogen peroxide], the “% Hydrogen Peroxide Recovery” value by setting is: (Example 1 of Table II: chlorobenzene 40.0 g, no acetone/methanol) 101%; (Example 2 of Table II: chlorobenzene 40.0 g, with acetone and methanol) 67%; (Example A: sulfuric acid, no chlorobenzene, no acetone/methanol) 107%; (Example B: no chlorobenzene, with acetone and methanol) 3%. The “Hydrogen Peroxide (mmoles) Recovered” value runs as follows: (Example 1 of Table II: chlorobenzene 40.0 g, no acetone/methanol, 93.6 mmoles in) 94.1 mmol; (Example 2 of Table II: chlorobenzene 40.0 g, with acetone and methanol, 104.2 mmoles in) 69.4 mmol; (Example A: sulfuric acid, no chlorobenzene, no acetone/methanol, 104.0 mmoles in) 111.7 mmol; (Example B: no chlorobenzene, with acetone and methanol, 104.8 mmoles in) 3.2 mmol.
